# Reference: patent publication US20220298135A1, “5-HETEROARYL-PYRIDIN-2-AMINE COMPOUNDS AS NEUROPEPTIDE FF RECEPTOR ANTAGONISTS” (Domain Therapeutics, priority 2019, published 2022)
# Target: T1, human NPFFR1 (hNPFFR1) receptor (Homo sapiens, UniProt Q9GZQ6)
# T1 construct: expressed in transfected cells; host or cells: HEK-293 T cells, transient co-transfection with polyethylenimine
# Experiment: Human NPFFR1 evaluation using BRET biosensors (antagonist IC50)
# Format: cell-based
# Conditions: hNPFFR1 transiently over-expressed in HEK-293 T cells; BRET signal; stimulation by EC80 RFRP-3
# Description: Compounds of the present invention were tested successively for their agonist and antagonist activities on human NPFFR1 (hNPFFR1) receptor transiently over-expressed in HEK-293 T cells. Compounds exert agonist activity if, by themselves in absence of neuropeptide RFRP-3 (also named NPVF) they activate hNPFFR1; and they exert antagonist activity if they decrease the action of RFRP-3 on the receptor.
# The assay used to measure compound activity is based on BRET (Bioluminescence Resonance Energy Transfer) biosensors and is designed to monitor the plasma membrane translocation of protein that interacts with specific Ga subunit. The specific effector (luciferase tagged: BRET donor) recruited at the membrane will be in close proximity to a plasma membrane anchor (GFP tagged: BRET acceptor) to induce a BRET signal. Biosensors are described in the patent application WO 2016/041093 A1 (Biosensors for monitoring biomolecule localization and trafficking in cells).
# HEK-293 T cells are maintained in Dulbecco's Modified Eagle's Medium supplemented with 10% Foetal Calf Serum, 1% Penicillin/Streptomycin at 37° C./5% CO2.
# Cells are co-transfected using polyethylenimine (25 kDa linear) with four DNA plasmids encoding: hNPFFR1, GαoB, a Gi family specific intracellular effector fused to luciferase (BRET donor), a plasma membrane effector fused to GFP (BRET acceptor). After transfection, cells are cultured for 48 h at 37° C./5% CO2.
# Receptor activity is detected by changes in BRET signal.
# On the day of the assay, cells are detached using trypsin 0.05%, resuspended in assay buffer (1.8 mM CaCl2, 1 mM MgCl2, 2.7 mM KCl, 137 mM NaCl, 0.4 mM NaH2PO4, 5.5 mM D-Glucose, 11.9 mM NaHCO3, 25 mM Hepes) and seeded in 384 well plate at a density of 20,000 cells per well. Then, plates are equilibrated 3.5 hours at 37° C. before adding compounds.
# Compounds and luciferase substrate are added to the cells using an automated device (Freedom Evo®, Tecan) and BRET readings are collected on EnVision (PerkinElmer) with specific filters (410 nm BW 80 nm, 515 nm BW 30 nm).
# Agonist and antagonist activities of compounds are consecutively evaluated on the same cell plate. Agonist activity is first measured after 10 minutes incubation with compound alone on the cells. Then, cells are stimulated by an EC80 RFRP-3 concentration and luminescence is recorded for additional 10 minutes. EC80 RFRP-3 concentration is the concentration giving 80% of the maximal RFRP-3 response. Agonist or antagonist activities are evaluated in comparison to basal signals evoked by assay buffer or EC80 RFRP-3 alone, respectively.
# For IC50 determination, a dose-response test is performed using 20 concentrations (ranging over 6 logs) of each compound. Dose-response curves are fitted using the sigmoidal dose-response (variable slope) analysis in GraphPad Prism software (GraphPad Software) and IC50 of antagonist activity is calculated. Dose-response experiments are performed in duplicate, in two independent experiments.
# T1 sequence (Q9GZQ6 whole entry): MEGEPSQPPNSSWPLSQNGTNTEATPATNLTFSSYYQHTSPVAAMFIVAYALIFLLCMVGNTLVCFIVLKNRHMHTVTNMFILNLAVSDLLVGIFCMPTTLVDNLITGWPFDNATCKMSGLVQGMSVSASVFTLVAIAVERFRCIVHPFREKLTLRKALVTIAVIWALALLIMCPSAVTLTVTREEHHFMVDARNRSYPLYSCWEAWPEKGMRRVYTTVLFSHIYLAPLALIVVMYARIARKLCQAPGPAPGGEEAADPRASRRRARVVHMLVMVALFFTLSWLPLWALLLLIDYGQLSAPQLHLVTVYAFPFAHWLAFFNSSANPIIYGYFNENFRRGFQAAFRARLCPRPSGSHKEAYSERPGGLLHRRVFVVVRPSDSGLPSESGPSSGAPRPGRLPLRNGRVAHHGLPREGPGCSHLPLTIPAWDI
row,Structure (SMILES),IC50 [nM]
1,"Nc1ccc(-c2cccc3cccnc23)c(N)n1 [Example 31, 3-(8-quinolyl)pyridine-2,6-diamine]",< 100
2,"Nc1ccc(-c2c(F)cc(F)c3cccnc23)c(N)n1 [Example 59, 3-(5,7-difluoroquinolin-8-yl)pyridine-2,6-diamine]",< 100
3,"Nc1ccc(-c2c(F)ccc3cc(Cl)cnc23)c(N)n1 [Example 60, 3-(3-chloro-7-fluoroquinolin-8-yl)pyridine-2,6-diamine]",< 100
4,"Nc1ccc(-c2c(Cl)ccc3ccc(O)nc23)c(N)n1 [Example 63, 8-(2,6-diaminopyridin-3-yl)-7-chloroquinolin-2-ol]",< 100
5,"CCc1nc(N)ccc1-c1cccc2sccc12 [Example 78, 5-(benzo[b]thiophen-4-yl)-6-ethylpyridin-2-amine]",100 to 1000
6,"CCc1nc(N)ccc1-c1cccc2ccoc12 [Example 79, 5-(benzofuran-7-yl)-6-ethylpyridin-2-amine]",100 to 1000
7,"CCc1nc(N)ccc1-c1c(Cl)ccc2cccnc12 [Example 110, 5-(7-chloroquinolin-8-yl)-6-ethylpyridin-2-amine]",< 100
8,"CCc1nc(N)ccc1-c1cccc2ccc(-c3ccccc3)nc12 [Example 116, 6-ethyl-5-(2-phenylquinolin-8-yl)pyridin-2-amine]",< 100
9,"CCc1nc(N)ccc1-c1cccc2ccc(-c3cccnc3)nc12 [Example 117, 6-ethyl-5-(2-(pyridin-3-yl)quinolin-8-yl)pyridin-2-amine]",< 100
10,"CCc1nc(N)ccc1-c1cccc2ccc(-c3cncnc3)nc12 [Example 124, 6-ethyl-5-(2-(pyrimidin-5-yl)quinolin-8-yl)pyridin-2-amine]",< 100
11,"CCc1nc(N)ccc1-c1cccc2ccc(OCCN3CCOCC3)nc12 [Example 130, 6-ethyl-5-(2-(2-morpholinoethoxy)quinolin-8-yl)pyridin-2-amine]",100 to 1000
12,"CCc1nc(N)ccc1-c1cccc2ccc(C(=O)N(C)C)nc12 [Example 140, 8-(6-amino-2-ethylpyridin-3-yl)-N,N-dimethylquinoline-2-carboxamide]",100 to 1000
13,"CCc1nc(N)ccc1-c1c(Cl)ccc2cc(F)cnc12 [Example 144, 5-(7-chloro-3-fluoroquinolin-8-yl)-6-ethylpyridin-2-amine]",< 100
14,"CCc1nc(N)ccc1-c1c(F)ccc2cc(Cl)cnc12 [Example 146, 5-(3-chloro-7-fluoroquinolin-8-yl)-6-ethylpyridin-2-amine]",< 100
15,"CCc1nc(N)ccc1-c1c(Cl)ccc2cc(Cl)cnc12 [Example 147, 5-(3,7-dichloroquinolin-8-yl)-6-ethylpyridin-2-amine]",< 100
16,"CCc1nc(N)ccc1-c1c(F)cc(F)c2cc(Cl)cnc12 [Example 148, 5-(3-chloro-5,7-difluoroquinolin-8-yl)-6-ethylpyridin-2-amine]",< 100
17,"CCc1nc(N)ccc1-c1c(F)c(F)cc2cc(Cl)cnc12 [Example 149, 5-(3-chloro-6,7-difluoroquinolin-8-yl)-6-ethylpyridin-2-amine]",< 100
18,"CCc1nc(N)ccc1-c1c(F)ccc2cc(Br)cnc12 [Example 151, 5-(3-bromo-7-fluoroquinolin-8-yl)-6-ethylpyridin-2-amine]",< 100
19,"CCc1nc(N)ccc1-c1c(C#N)ccc2cccnc12 [Example 153, 8-(6-amino-2-ethylpyridin-3-yl)quinoline-7-carbonitrile]",100 to 1000
20,"CCc1nc(N)ccc1-c1cccc2c1N(C)C(=O)CC2 [Example 157, 8-(6-amino-2-ethylpyridin-3-yl)-1-methyl-3,4-dihydroquinolin-2(1H)-one]",> 1000
21,"CCc1nc(N)ccc1-c1c(Cl)ccc2ccc(O)nc12 [Example 160, 8-(6-amino-2-ethylpyridin-3-yl)-7-chloroquinolin-2(1H)-one]",< 100

# Test system: not given
# Experiment: not given
# Conditions: not given
row,Structure (SMILES),melting point [°C]
1,CCc1nc(N)ccc1-c1c(F)ccc2ccc(N(CC)C3CCCCC3)nc12.Cl,160 to 210
2,CCc1nc(N)ccc1-c1c(F)ccc2ccc(N(CC)C(C)C)nc12.Cl,214 to 229
